According to patent US8063054B2, “Method of treatment of retinal ischemia with diazoxide” (Centre National de la Recherche Scientifique-CNRS, priority 2003, dated 2011):

Columns and labels:
[1] = tested on: Brown Norway rats; assay: Electroretinography (A and B wave amplitude) after retinal ischemia induced by elevation of the intraocular pressure; type: in vivo, rat
Procedure: Brown Norway rats from the scientific stock farm IFFA CREDO with a weight between 200 and 250 g were received and placed into individual cages in an air-conditioned room (temperature between 18 and 20° C.) with a light/dark cycle (12 h/12 h). During the study the animals had free access to food and water. Diazoxide was dissolved in a pure solution of dimethyl sulfoxide (DMSO). The solution obtained in this manner was diluted in sterile physiological serum to obtain a final ophthalmic solution at 0.01% active principle and 0.4% DMSO. The local administration was performed by instillation of 10 μl of the ophthalmic solution in the conjunctival cul-de-sac of the right eye 30 minutes after the end of the ischemia for the 1st group and 24 hours after the start of the reperfusion for the second group, […] After general anesthesia of the rats by intraperitoneal injection of sodium pentobarbital (60 mg/kg) the pupil was dilated by instillation of a drop of Mydriaticum®. The anterior chamber of the right eye, previously anesthetized by instillation of a drop of oxybuprocaine, was cannulated with a 30G needle connected to a reservoir containing a Hank's balanced salt solution. The retinal ischemia, lasting 40 min, was induced by elevation of the reservoir containing the saline solution to a height of 185 cm, permitting an intraocular pressure to 130 mm Hg to be produced. Ischemia was characterized by the disappearance of the blood flow in the retinal vessels, determined by direct opthalmoscopy of the ocular fundus. The rats were sacrificed after a period of reperfusion of 7 days. All the rats that developed a cataract or a hemorrhage were separated from the study. The electroretinography is performed under general anesthesia of the rats after dilation of the pupil by instillation of a drop of Mydriaticum®. The animal is previously adapted for 12 hours to darkness, then installed on its flank in a Faraday cage. The measuring electrode, constituted by a silver chloride ring (Ag/AgCl) is placed on the cornea of the right eye. The reference electrode constituted by a silver chloride needle is inserted in the ear of the animal. All these operations are performed under red light. The luminous stimuli are produced by a stroboscope placed at 25 cm from the eye in the visual axis. The flash of white light lasting 10 μs and with an intensity of 2.5·10^3 cd·s·m^−2 permits a maximal response of the retina. The recovery of the electrical signal, its amplification, transmission and display on a microcomputer are managed by a compact system. An integrated software permits the acquisition of the data as well as the determination of the amplitudes and of the latency times of the different waves of the electroretinogram (ERG). The ERG in the rat is composed of two waves; a corneo-negative wave or A wave reflecting the activity of the photoreceptors followed by a wave of positive polarity or B wave reflecting the activity of the Müller cells. The ERG's are recorded for all the groups at time t=0 before induction of ischemia, then at times 1, 2, 3 and 7 days after the start of the reperfusion. The pre-ischemic amplitudes of the A and B waves of the ERG are very variable from one group to the other, but also within one and the same group. Recovery is expressed by percentage of the initial value and the difference of effectiveness between each treatment is analyzed with the aid of the U test of Mann Whitney. The significance threshold is 0.02.

[2] = tested on: Brown Norway rats; assay: Histological analysis of the cytoarchitecture of the retina after retinal ischemia; type: in vivo, rat; conditions: 7 days after the end of the ischemia; treated 30 min or 24 hours after ischemia, compared to non-treated ischemia group
Procedure: Brown Norway rats from the scientific stock farm IFFA CREDO with a weight between 200 and 250 g were received and placed into individual cages in an air-conditioned room (temperature between 18 and 20° C.) with a light/dark cycle (12 h/12 h). During the study the animals had free access to food and water.
Diazoxide was dissolved in a pure solution of dimethyl sulfoxide (DMSO). The solution obtained in this manner was diluted in sterile physiological serum to obtain a final ophthalmic solution at 0.01% active principle and 0.4% DMSO.
The local administration was performed by instillation of 10 μl of the ophthalmic solution in the conjunctival cul-de-sac of the right eye 30 minutes after the end of the ischemia for the 1st group and 24 hours after the start of the reperfusion for the second group, then each day for 4 hours.
After general anesthesia of the rats by intraperitoneal injection of sodium pentobarbital (60 mg/kg) the pupil was dilated by instillation of a drop of Mydriaticum®. The anterior chamber of the right eye, previously anesthetized by instillation of a drop of oxybuprocaine, was cannulated with a 30G needle connected to a reservoir containing a Hank's balanced salt solution. […] Ischemia was characterized by the disappearance of the blood flow in the retinal vessels, determined by direct opthalmoscopy of the ocular fundus. […]

[3] = diazoxide 0.01% instilled 30 minutes after the start of the reperfusion and every day for 4 days, 3 days after the start of the reperfusion, ± standard deviation, n=7
[4] = diazoxide 0.01% instilled 30 minutes after the start of the reperfusion and every day for 4 days, 7 days after the end of the ischemia
[5] = diazoxide applied 24 hours after the start of the reperfusion, time 3 days
[6] = diazoxide applied 24 hours after the start of the reperfusion, time 7 days

## CC1=Nc2ccc(Cl)cc2S(=O)(=O)N1 [diazoxide, 7-chloro-3-methyl-2H-1,2,4-benzothiadiazine-1,1-dioxide]
[1]; 7 days after the end of the ischemia, groups treated 30 min or 24 hours after ischemia, compared to non-treated ischemia group
  reduction of the electrical activity of the retina (ERG profiles, FIG. 1C-1D): much less drastic
[1]; [3]
  amplitude of wave A of the electroretinogram, recovery in % of the initial values: 97.01±13%
  amplitude of wave B of the electroretinogram, recovery in % of the initial values: 96.36±11%
[1]; [4]
  amplitude of wave A of the electroretinogram, recovery in % of the initial values: 88.10±14%
  amplitude of wave B of the electroretinogram, recovery in % of the initial values: 75±14%
[1]; [5]
  amplitude of wave A of the electroretinogram, recovery in % of the initial values: 84.26±10%
  amplitude of wave B of the electroretinogram, recovery in % of the initial values: 88.17±14%
[1]; [6]
  amplitude of wave A of the electroretinogram, recovery in % of the initial values: 87.59±16%
  amplitude of wave B of the electroretinogram, recovery in % of the initial values: 70.59±16%
[1]; instilled 30 min or 24 hours after the end of the ischemia, compared to the non-treated group caused to have ischemia
  effect on the recovery of the retinal function (statistical analysis, Mann Whitney U test): highly significant effect
[2]
  preservation of the layers of the ganglionic cells and the photoreceptor cells (FIGS. 3C and 3D): better presservation
  thickness of the internal plexiform and nuclear layers of the retina (FIGS. 3C and 3D): less severe reduction
